By MIC is commonly meant the lowest concentration that inhibits growth of the organism. What is called AC50 is the midpoint of the concentration-response curve, whichever way the signal moves. A lower AC50 goes with activity at low concentration.

From paper PMC8308845, “Discovery of Novel Chemical Series of OXA-48 β-Lactamase Inhibitors by High-Throughput Screening” (Pharmaceuticals, 2021) come the findings set out here.

Several values for one entry are separate records, joined by “and”; a condition that tells them apart may be missing. Equal values may be shown once. Read-outs that look alike come from different tables or passages of the source.

Experiment [1] has as its system K. pneumoniae ATCC BAA-2524. The experiment in a line: MIC by broth microdilution, β-lactam-resistant strain producing OXA-48. Conditions: for MIC: Klebsiella pneumoniae. The experiment is classed as cell-based, Klebsiella pneumoniae. An excerpt:
(§1) To evaluate the capability of restoring β-lactam susceptibility, the two most promising representatives of SC_2 (ID3) and SC_7 (ID2) were screened alone and in combination with ampicillin (AMP) and IMP against sensitive and resistant Gram-negative bacteria. Avibactam and tazobactam were also included in the MIC characterization as BLI reference compounds. Specifically, we used E. coli ATCC25922 as antibiotic-sensitive strain, while E. coli ATCC BAA-2523 and K. pneumoniae ATCC BAA-2524 as β-lactam-resistant bacteria, producing OXA-48 carbapenemase.
(§2) Test compounds and tazobactam were tested at 32 µg/mL, while avibactam was applied at 4 µg/mL. […] Both antibiotics were selected for the combination study as they can be hydrolyzed by the target OXA-48 enzyme.
(§3) MIC values were determined by the broth dilution method and interpreted using published guidelines described by Clinical and Laboratory Standards Institute (CLSI).
(§4) All BLIs were dissolved in 100% DMSO and they were tested at a fixed concentration of 32 µg/mL and 1% of DMSO final concentration. Avibactam was used as reference β-lactamase inhibitor. All antimicrobials were prepared in line with CLSI susceptibility testing standards. AMP (USP # 1033000; batch no. K1M493) was dissolved at 5.12 mg/mL, IMP (USP # 1337809; batch no. R038R0) and avibactam (Biochem # NXL 104; batch no. 20180726) were dissolved at 1.28 mg/mL in the respective solvents recommended by CLSI (2). Solutions at 4X the final concentrations of the test range were made in Cation adjusted Mueller-Hinton broth (CA-MHB, BD # 212322; batch no. 6117994; Expiry date: 29.02.2020) by serial dilutions, and then diluted 2-fold with CA-MHB (for antimicrobials alone), or with the BLIs/avibactam (for combinations of new/reference inhibitors and antimicrobials). Moreover, all BLIs were tested alone at a fixed concentration of 32 μg/mL. The final concentration of DMSO in the test tubes was 1% for each different combination.
(§5) 50 μL of each well were then transferred from the masterblock into 96-well plates to whom were then added 50 μL of the final inoculum. MIC tests were performed by broth microdilution in line with CLSI susceptibility testing standards. Bacterial inocula were prepared at ca. 1 × 10^6 CFU/mL by diluting 100-fold a 0.5 McFarland suspension in CA-MHB with TES (TREK Diagnostic Systems, Product code: T3462; Batch: 356347; Expiry date: 12-Jun-2019). 50 μL of antibacterial solutions at 2 × the final concentrations were diluted 2-fold with 50 μL of inoculum to give a final inoculum of ca. 5 × 10^5 CFU/mL and desired test concentrations of antibacterial agents. Test plates were incubated according to CLSI guidelines and read visually. MIC values corresponded to the first well with no visible growth.
(In general: In broth dilution the organism is exposed to a series of concentrations in liquid medium.)

The subject of the next experiment is E. coli ATCC25922. In words: MIC by broth microdilution, antibiotic-sensitive strain. The experiment is classed as cell-based. Conditions: Escherichia coli.
Text: as §1, §2, §3, §4, §5

The test system of another experiment is E. coli ATCC BAA-2523. The experiment in a line: MIC by broth microdilution, β-lactam-resistant strain producing OXA-48. The experiment is classed as cell-based, Escherichia coli. The following applies: for MIC: Escherichia coli.
Text: as §1, §2, §3, §4, §5

The target in the next experiment is T1, OXA-48 (Klebsiella pneumoniae, UniProt Q6XEC0).
T1 construct: made in house; host or cells: E. coli BL21(DE3), T7 expression system
In words: OXA-48 primary enzymatic assay (nitrocefin substrate, fluorescence-quenching readout). Format: biochemical. The following applies: dose–response, median of triplicate wells; 15 min preincubation, 25 µM nitrocefin. The method, then:
After an initial pilot run (three plates, consisting of 960 randomly selected compounds), the primary screening of the subset plates was carried out at 20 µM in single point against OXA-48 enzyme in a nitrocefin-based assay, using the fluorescence-quenching readout. This enzymatic assay employs the cephalosporin nitrocefin as OXA-48 substrate and takes advantage of the fluorescent properties of white microtiter plates. Chromogenic nitrocefin is hydrolyzed by β-lactamases to yield a product with increased absorbance properties (~495 nm) that quenches the plate fluorescence by absorbing the plate’s emission light. In this assay, test compounds that inhibit OXA-48 catalytic activity are predicted to reduce nitrocefin quenching of plate fluorescence, resulting in a quantitative increase in well fluorescence (ON-system for inhibitors). The nitrocefin-based epi-absorbance readout system has been successfully applied in HTS campaigns on other β-lactamases, such as IMP-1 and VIM-2, with the identification of inhibitors belonging to novel scaffolds displaying a favourable degree of selectivity and sub-micromolar potency.
The screening results were expressed as activity percent. […] Overall, the primary assay robustness was good, with Robust Z Prime factor (RZ′) equal to 0.86.
In total, 256 active molecules (125 from the subset and 131 from the full set) were then assayed in dose–response at eight concentrations from 60 to 0.002 µM with interplate triplicate data points.
The blaOXA gene coding for the OXA-48 ß-lactamase, originally cloned from the K. pneumonia 11978 (a clinical isolate from Istanbul Faculty Hospital, Istanbul, Turkey) was overexpressed via a T7 expression system in E. coli BL21(DE3), and its product, native protein, (final yield of 30 mg/L of culture) was subjected to several purification steps, including ion-exchange chromatography with Q-Sepharose and 20 mM Tris-HCl buffer (pH 9.0), followed by chromatography with S-Sepharose columns and 100 mM sodium phosphate buffer (pH 5.8). Elution of the beta-lactamase was performed with a K2SO4 gradient. Peaks of beta-lactamase activity were concentrated and were dialyzed with 100 mM phosphate buffer (pH 7.0). The OXA-48 enzyme was purified to homogeneity (with a degree of purity around 95.4%.)-as measured by 12% SDS PAGE [23]. OXA-48 protein stock solution (2 mg/mL) was finally prepared in 20 mM Hepes (pH 8,1). OXA-48 β-lactamase specific activity was measured by following the hydrolysis of 100 μM nitrocefin (ε: 17,000 M-1 cm^−1 at 482 nm; Δε: 15,000 M-1 cm^−1 at 482 nm) and corresponding to 60.45 μmoles min^−1 mg^−1 of OXA-48 (kcat = 28.85 s^−1) enzyme. A MW of 28,147 g/mol, calculated from the enzyme sequence was confirmed by MALDI-TOF analysis with a Mass error of ± 2.8 Da.
The primary assay was developed to monitor the enzymatic activity of OXA-48 taking advantage of the spectroscopic properties of white microtiter plates (Optiplate-384, PerkinElmer, #6007290), as indicated by Zuck et al.. Nitrocefin is chromogenic substrate for beta-lactamases with λmax = 395 nm (yellow). Upon hydrolysis by OXA-48, nitrocefin yields (2R)-2-[(R)-carboxy[2-(thiophen-2-yl)acetamido]methyl]-5-[(E)-2-(2,4-dinitrophenyl)ethenyl]-3,6-dihydro-2H-1,3-thiazine-4-carboxylic acid, with increased absorbance properties at λmax = 495 nm. Spectroscopic features of the reaction product are exploited to quench the plate intrinsic fluorescence by absorbing the plate’s emission light, which can be monitored by exciting the reaction at 485 nm and recording the emission at 520 nm. Therefore, the primary assay for HTS was an ON-assay, in which compounds targeting OXA-48 were predicted to elicit an increase of the fluorescence signal.
The primary assay was performed in reaction buffer (20 mM Hepes pH 8.0, 12.5 mM NaCl, 0.005% BSA, 0.0005% Brij-35) in the presence of 0.0014 ng/µL OXA-48 and 25 µM nitrocefin in a final volume of 20 µL/well in 384 MTP format. […]

The mark [2] stands for this setting: ATCCBAA2524, β-lactam alone, read-out: MIC β-lactam.
[3] abbreviates: β-lactam alone, read-out: MIC β-lactam.
Where [4] appears, read: ATCCBAA2523, β-lactam alone, read-out: MIC β-lactam.

T1 sequence (Q6XEC0 23-265, looked up): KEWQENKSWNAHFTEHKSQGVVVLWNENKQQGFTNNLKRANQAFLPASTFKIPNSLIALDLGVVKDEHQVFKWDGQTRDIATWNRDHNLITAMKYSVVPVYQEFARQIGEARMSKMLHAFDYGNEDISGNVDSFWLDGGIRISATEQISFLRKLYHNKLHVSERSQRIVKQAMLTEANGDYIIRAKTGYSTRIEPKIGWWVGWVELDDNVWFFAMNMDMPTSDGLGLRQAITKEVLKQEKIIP

Take `CC1(C)S[C@@H]2[C@H](NC(=O)[C@H](N)c3ccccc3)C(=O)N2[C@H]1C(=O)O` [AMP, ampicillin]: the MIC in experiment [1] (setting [2]) was over 512 µg/mL; in the experiment with E. coli ATCC25922 (setting [3]), 4 µg/mL; with E. coli ATCC BAA-2523 (setting [4]) it was over 512 µg/mL. Also, the “MIC β-lactam” value (in experiment [1] (β-lactam alone); in the experiment with E. coli ATCC BAA-2523 (β-lactam alone)) was over 512 µg/mL each time.
On to `O=C(O)c1ccc(/C=N/n2c(S)nnc2-c2ccc(Cl)cc2)cc1` [ID3], for which the minimum inhibitory concentration (MIC) in experiment [1] (ATCCBAA2524, no β-lactam, BLI tested at 32 µg/mL, read-out: MIC, BLI alone) is over 32 µg/mL; with E. coli ATCC25922 (no β-lactam, BLI tested at 32 µg/mL, read-out: MIC, BLI alone) it was over 32 µg/mL; in the experiment on E. coli ATCC BAA-2523 (ATCCBAA2523, no β-lactam, BLI tested at 32 µg/mL, read-out: MIC, BLI alone) it was over 32 µg/mL. Besides, at OXA-48, the AC50 was 723 nM and 720 nM.
As to `C[C@@H](O)[C@H]1C(=O)N2C(C(=O)O)=C(SCCN=CN)C[C@H]12` [IMP, imipenem], the minimal inhibitory concentration (MIC) stood at 4 µg/mL in experiment [1] (setting [2]), 0.12 µg/mL in the experiment with E. coli ATCC25922 (setting [3]) and 2 µg/mL with E. coli ATCC BAA-2523 (setting [4]).
